Experiment [1] concerns BC CML CD34+ cells (LSC). Briefly: SL/M2 stromal co-culture, clonogenic survival and self-renewal (replating) assays, BC CML. Format: cell-based, human. Conditions: imetelstat monotherapy, 1 to 10 μM, vs mismatch control. The source says:
Lentiviral human wild-type and mutant ADAR1^E912A (pCDH-EF1-T2A-copGFP) and shRNA targeting ADAR1 were produced according to published protocols^27,37. In Vitro MPN-SPC and LSC Survival and Self-Renewal Assays with Imetelstat To assess MPN progenitor and LSC survival and self-renewal in vitro, human primary CD34^+ cells selected from BC CML (n=5), MF (n=9) or age matched normal bone marrow (a-NBM, n=4) were co-cultured with SL/M2 stromal cells for 7-14 days, and then treated with imetelstat alone or combined with dasatinib for BC CML or Pacritinib for MF. Colony forming and replating assays were performed as previously described^32.
To assess MPN progenitor and LSC survival and self-renewal in vitro, human primary CD34^+ cells selected from BC CML (n=5), MF (n=9) or age matched normal bone marrow (a-NBM, n=4) were co-cultured with SL/M2 stromal cells for 7-14 days, and then treated with Imetelstat alone or combined with dasatinib for BC CML or Pacritinib for MF. Colony forming and replating assays were performed as previously described^32,33.
FIG. 3A. A schematic illustration of SL/M2 stromal co-cultures established to quantify in vitro MPN-SPC and LSC survival and self-renewal. Human primary CD34^+ cells selected from BC CML (n=5), MF (n=9) or age matched normal bone marrow (a-NBM, n=4) were co-cultured with SL/M2 stromal cells for 7-14 days. […]

Experiment [2] concerns telomere length. Briefly: FlowFish telomere length assay in LSC mouse models. It is filed as in vivo, human. The settings on record: imetelstat compared with mismatch control; p<0.05, t test, ANOVA. As for the experimental part:
Telomere length was determined using the Telomere PNA Kit/FITC for Flow Cytometry (Dako, Cat #K5327) with a MACSQuant10 and analyzed with FlowJo software. The Relative Telomere Length (RTL) was calculated by dividing the mean fluorescence intensity (MFI) of the test sample G0/G1 population by the MFI of the normal peripheral blood reference G0/G1 population using the Cycletest™ Plus DNA Kit (BD, Cat #340242). Telomerase activity was determined using the TRAPeze Kit RT Telomerase Detection Kit (Millipore, Catalog No. S7710).
Samples were selected from engrafted mouse bone marrow or spleen with human CD45+ immunomagnetic beads (Miltenyi). Telomere length was determined by using the Telomere PNA Kit/FITC for Flow Cytometry (Dako, Cat #K5327). Samples were run on the MACSQuant10 and analyzed with FlowJo software. The Relative Telomere Length (RTL) was calculated. The 1301 cell line was utilized as control cells. The DNA index was determined with the (BD Cycletest™ Plus DNA Kit, Cat #340242). The DNA index was obtained by dividing the MFI of the test sample G0/G1 population by the WI of the normal reference G0/G1 population. Human peripheral blood mononuclear cells were used as “the normal reference G0/G1 population” for calculating the DNA index. Telomerase activity was determined by using TRAPeze Kit RT Telomerase Detection Kit (Millipore, Catalog No. S7710). […]

Experiment [3] relates to ADAR1-mediated RNA editing. Description: RNA-seq quantification of ADAR1-mediated A-to-I RNA editing in treated BC CML mice. Format: in vivo. Conditions: human cells from imetelstat treated LSC mouse models; p=0.037. The method, then:
For gene expression and RNA editing analysis, RNA editing sites were identified in REDIportal^34 (see the Supplementary Appendix). […] Gene Set Enrichment Analysis was performed with the Bioconductor package GSVA (see the Supplementary Appendix)^36. For in vitro and in vivo experiments, the Student's t-test was utilized to evaluate statistical significance of normally distributed data and Wilcoxon tests were utilized for non-normally distributed data with a p value of <0.05.
To quantify adenosine-to-inosine (A-to-I) RNA editing events induced by ADAR1, RNA reads were aligned using 2-pass alignment with STAR 2.5.2b 2-pass alignment. […] All sites were kept if a minimum of three alternative allele carrying reads and ten total reads and a minimum allele frequency of 0.10 were present. […] We only predicted RNA editing sites with >10 reads/site to compare mismatches and excluded sites that were identified as DNA variants. […] To account for multiple testing, adjusted p-values were calculated using the Benjamini-Hochberg procedure and genes with events below an adjusted p-value of 0.05 were called significant and retained in the final lists.
FIG. 5H. A boxplot depicting detectable RNA edits per million aligned reads in human CD45^+ cells derived from vehicle (red), mismatch control (blue) and imetelstat (green) treated BC CML mouse models. […]

“Also recorded” adds a separate entry of the source.

With imetelstat, the “BC CML LSC replating (self-renewal) capacity” value in experiment [1] is listed as “ineffective”. The “telomere length (FlowFish assay)” value in experiment [2] was “normalization of telomere length”. The “ADAR1-mediated adenosine to inosine RNA editing by RNA-seq” value in experiment [3] is recorded as “significant reduction; also recorded: significantly reduced”.

The values are drawn from patent US20240108734A1, “METHODS FOR TREATING AND AMELIORATING CANCER” (The Regents of the University of California, priority 2021, published 2024).
